Entries after “also recorded” stand apart in the source; their conditions may differ. Like-named read-outs stand apart in the source and are kept apart here.
What was measured:
[1] = system: Organoid cultures derived from LSL-K-Ras^G12D pancreata not treated by an Adeno-Cre virus; format: cell-based; conditions: no Adeno-Cre virus (Kras not activated)
[2] = cited from earlier work
KPC mice = KPC mice with established PDAC treated with gemcitabine with or without bethanechol; format: in vivo, mouse; conditions: for overall survival (in words): KPC mice with established PDAC, bethanechol + GEM vs GEM alone
From the text: Next, the role of cholinergic signaling in advanced pancreatic cancer was investigated using the genetically engineered KPC (K-Ras^+/LSL-G12D;p53^+/R172H;Pdx-1-Cre) mouse model, which develops ductal adenocarcinoma by 17-19 weeks (Olive et al., 2009, Hingorani et al., 2005).
K-Ras^+/LSL-G12D, p53^+/R172H, and Pdx-1-Cre mice were provided by Dr. Kenneth Olive (Columbia University). M1RKO mice were purchased from the Jackson Laboratory. KC mice and KPC mice were crossed with M1RKO mice. For several experiments, KC mice received pyloroplasty with or without vagotomy at 8 weeks and KC+VxPP mice were treated with or without bethanechol (400 μg/ml) after surgery immediately. They were sacrificed at 20 weeks. In addition, KPC mice were treated with gemcitabine biweekly and with or without bethanechol when the tumor size of 3-5 mm detected using ultrasound. They were sacrificed when the mice were moribund. For liver metastatic experiments, WT type C57/B6 mice received spleen injection and hemi-splenectomy. […] They were sacrificed when the mice were moribund.
Next, the role of cholinergic signaling in established PDAC was investigated using the KPC mouse model, which develops PDAC at a median age of 17-19 weeks^2, 29. KPC mice with pancreatic tumors that measured 3-5 mm in diameter on ultrasound were randomized to treatment with gemcitabine (GEM) alone, or GEM+bethanechol (FIG. 8I).
LSL-Kras^+/LSL-G12D, LSL-Trp53^+/R172H, and Pdx1-Cre mice were bred by Dr. Kenneth P. Olive and co-workers. Chrm1KO mice (C57BL/6-Chrm1tm1 Stl/J, (M1RKO) mice^1 were purchased from the Jackson Laboratory. KC mice and KPC mice were crossed with M1RKO mice. In the vagotomy experiments, KC mice received pyloroplasty with or without vagotomy at 8 weeks, and some KC+VxPP mice were treated with bethanechol ([…] in drinking water) immediately after surgery and then sacrificed at 20 weeks. KPC mice in treatment studies were palpated weekly for tumors in the pancreas. Once a tumor was suspected, KPC mice were screened by VEVO 2100—Ultrasound Imaging System (FUJIFILM VisualSonics) for pancreatic cancer. KPC mice were treated with gemcitabine, given by i.p. injection 100 mg/kg biweekly, with or without bethanechol, when a tumor size of 3-5 mm was detected using ultrasound. Mice were sacrificed when the mice were moribund. NOD/SCID mice were implanted with Panc1 cells subcutaneously and sacrificed at 30 days after implantation. For liver metastatic experiments, WT type C57/B6 mice received a splenic injection of labeled Panc02 cells, followed by hemi-splenectomy. The mice were then divided into three groups. […] Mice were then sacrificed when moribund. At necropsy, hepatic metastases that could clearly be identified as tumor nodules on gross inspection were separated. All animal studies and procedures were approved by the IACUC committee at Columbia University. All mice were bred under specific pathogen free conditions. Comparisons were made with age- and sex-matched control animals.
CD44, p-EGFR, p-PI3K, p-ERK, and Ki67 positive cells were quantified in at least five high power fields from at least 3 mice per group. Total cells per field were counted via morphometric analysis using ImageJ and the ratio of positive cells to total cell number calculated.

Panc1 cells = assay: RNAseq of Panc1 cells after pilocarpine treatment; format: cell-based, human
Protocol: Panc1 cells were lysed in RNA lysis buffer supplied in […] PicoPure RNA isolation kit (Life Technologies)(n=4). Total RNA was isolated in accordance with the manufacturer's protocol. cDNA was amplified and libraries were constructed by using SMARTer Ultra Low Input RNA Kit (Clontech Laboratories) and Nextera XT DNA Library Preparation Kit (Illumina) according to the respective manufacturer's instructions. Sequencing was performed with Hiseq 2500 (Illumina) (30 M 100 bp single end reads per sample). Sequenced reads were mapped to the NCBI annotated genes of the […] with BowTie2 and TopHat 2.0.4^5, 6. Reads were counted with HTSeq. Expression datasets were deposited in the Gene Expression Omnibus (GEO)^7 (GSE102880 code: armlggayprundsh). Samples were normalized with the TMM algorithm. The statistical significance of differential expression was estimated with weighted Limma-Voom^8, 9 which runs under Bioconductor/R^10-12. […] First, a screen in terms of Gene Ontology^14 categories for consistency with phenotype was performed. Genes were retained which either: 57 genes fulfilled these requirements, these genes were analyzed further in terms of KEGG pathways^15 with iPathwayGuide^16, 17

human Panc1 cells = assay: Western blot of EGFR/MAPK and PI3K/AKT signaling, Panc1; format: cell-based
Protocol: To analyze EGFR and the MAPK and PI3K-Akt pathway in human and murine pancreatic cancer cell lines, cells were grown in 12-well plate to around ˜70% confluent, changed the 0.5% FBS medium, added the drugs respectively and incubated them for further 72 hrs incubation in a typical CO2 incubator (˜20% O2). After removing the medium, cells were washed twice with PBS, and protein extraction was performed on ice using RIPA buffer with protease inhibitor (Complete) (Roche) cocktail and phosphatase inhibitor (phosSTOP) (Roche). Protein samples were subsequently separated in 10% Bis-Tris Gel NuPAGE® electrophoresis using MES SDS Running Buffer (Invitrogen, CA, USA). After transfer to nitrocellulose, membranes were blocked with 5% BSA, and samples were probed with the following primary antibodies: p-EGFR (Cell Signaling), EGFR (Cell Signaling), p-BRAF (Cell Signaling), BRAF (Cell Signaling), p-ERK1/2 (phosphorylated p44/42 MAPK) (Thr202/Tyr204) (Cell Signaling), ERK1/2 (p44/42 MAPK) (Thr202/Tyr204) (Cell Signaling), p-PI3K (Cell Signaling), PI3K (Cell Signaling), p-Akt (Cell Signaling), Akt (Cell Signaling), and β-actin (Cell Signaling) followed by horseradish peroxidase-coupled secondary antibody. Immunoreactive bands were visualized using 5-bromo-4-chloro-3-indolyl phosphate/nitro blue tetrazolium and bands were quantified with ImageJ.
To analyze EGFR, MAPK and PI3K-AKT pathways in human and murine pancreatic cancer cell lines, cells were grown in 12-well culture plates to ˜70% confluency. The medium was then changed to 0.5% FBS medium, the respective drugs were added, and they were incubated for an additional 72 hours in a CO2 incubator (˜5% CO2). After removing the medium, cells were washed twice with PBS, and protein extraction was performed on ice using RIPA buffer with protease inhibitor (Complete, Roche) cocktail and a phosphatase inhibitor (phosSTOP, Roche). Protein samples were subsequently separated by 10% Bis-Tris Gel NuPAGE® electrophoresis using MES SDS Running Buffer (Invitrogen, CA, USA). After transfer to nitrocellulose, membranes were blocked with 5% BSA, and samples were probed with the following primary antibodies: p-EGFR (Cell Signaling), EGFR (Cell Signaling), p-BRAF (Cell Signaling), BRAF (Cell Signaling), p-ERK1/2 (phosphorylated p44/42 MAPK) (Thr202/Tyr204) (Cell Signaling), ERK1/2 (p44/42 MAPK) (Thr202/Tyr204) (Cell Signaling), p-PI3K (Cell Signaling), PI3K (Cell Signaling), p-AKT (Cell Signaling), AKT (Cell Signaling), and β-actin (Cell Signaling) followed by horseradish peroxidase-coupled secondary antibody. Immunoreactive bands were visualized using 5-bromo-4-chloro-3-indolyl phosphate/nitro blue tetrazolium and bands were quantified with ImageJ.

[3] = system: murine PDAC cell lines (Panc02, K8282); assay: MTT assay, murine PDAC cell lines; format: cell-based, mouse; conditions: agonist added to antagonist
Protocol: Cell proliferation in each cell line was assessed with a 3-(4,5-dimethylthiazol-2yl)-2,5-diphenyltetrazolium bromide (MTT) assay kit (Sigma) in accordance with the manufacturer's instructions. 3×10^3 cells were grown in 96-well plate to around ˜70% confluent, changed the 0.5% FBS medium, added the drugs respectively and incubated them for further 72 hrs incubation in a typical CO2 incubator (˜20% O2). Treated cells were rinsed twice with PBS, incubated in 10 ll MTT solution for 4 hr at 37° C., and 100 uL DMSO was added to each well. The absorbance of each well was measured at 570 nm using Tilter-Tech 96-well multiscanner (Becton Dickinson, Heidelberg, Germany). The relative number of viable cells compared with the number of cells without drug treatment was expressed as percent cell viability using the following formula:
Cell proliferation in each cell line was assessed with a 3-(4,5-dimethylthiazol-2yl)-2,5-diphenyltetrazolium bromide (MTT) assay kit (Sigma) in accordance with the manufacturer's instructions. 3×10^3 cells were grown in 96-well plate to ˜70% confluency, the media was changed to 0.5% FBS medium, the respective drugs were added, and they were incubated for an additional 72 hours in a CO2 incubator (˜5% CO2). Treated cells were rinsed twice with PBS, incubated in 10 ul MTT (5 mg/ml PBS) solution for 4 hours at 37° C., and 100 uL DMSO was then added to each well. The absorbance of each well was measured at 570 nm using a Tilter-Tech 96-well multiscanner (Becton Dickinson, Heidelberg, Germany). The relative number of viable cells compared with the number of cells without drug treatment was expressed as percent cell viability using the following formula: cell viability (%)=A570 of treated cells/A570 of untreated cells.

[4] = Panc1 cells, pilocarpine, preliminary analysis
[5] = Panc-1 cells treated with pilocarpine

SMILES | sphere forming capacity / growth of WT spheres [1] | toxicity in treatment of xerostomia ([2]; cancer patients, 25 mg twice daily for several months) | side effects in treatment of xerostomia ([2]; cancer patients, up to 50 mg three times daily and 25 mg 3 times a day) | duration of action ([2]; human, in vivo) | interactions with gemcitabine or nab-paclitaxel ([2]; human, in vivo) | toxicity in treatment of xerostomia ([2]; oncology, doses up to 50 mg three times daily) | toxicity of single doses ([2]; single doses up to 200 mg) | overall survival (in words) (KPC mice) | overall survival (in words) (KPC mice; listed as Bethanechol) | expression of p-EGFR, p-PI3K and p-ERK1/2 (immunohistochemical staining) (KPC mice; pancreata of KPC mice treated with bethanechol) | expression of growth related genes EGFR and PI3K (RNAseq) (Panc1 cells; Panc1 cells, pilocarpine 1 mM, 72 hrs) | expression of PIK3CA(PI3K), EGFR, KDR(RTK), ITGAV(ITGA), NTRKB(TRKB) and BRAF(RafB) (RNAseq, KEGG pathways) (Panc1 cells; Panc1 cells, pilocarpine treated vs untreated) | expression of BDNF and NGF (Panc1 cells; [4]) | expression of TRK-B receptor (NTRK2) (Panc1 cells; [4]) | expression of BRAF, EGFR, PIK3CA, ITGAV, KDR, and FOXO3 (RNAseq) (Panc1 cells; [5]) | expression of STK11 and FOX06 (RNAseq) (Panc1 cells; [5]) | phosphorylation of EGFR, BRAF, ERK1/2, PI3K and AKT kinases (western blot) (human Panc1 cells; 72 hours) | ratios of p-EGFR/EGFR, p-BRAF/BRAF, p-ERK/ERK, p-PI3K/PI3K and p-AKT/AKT (densitometry) (human Panc1 cells; single agent alone) | increase in proliferation due to muscarinic antagonists [3]
CC(C[N+](C)(C)C)OC(N)=O (centres unmarked) [bethanechol, 2-[(aminocarbonyl)oxy]-N,N,N-trimethyl-1-propanaminium] | increased | without any severe (Grade 3) toxicity | did not identify any clinically significant side effects | 6 h | no reported interactions | without grade 3 toxicity or need for discontinuation | only mild cholinergic toxicity | extended significantly; also recorded: significantly extended | significantly extended; also recorded: prolongs | suppressed; also recorded: significantly downregulated |  |  |  |  |  |  |  |  | 
CC[C@@H]1C(=O)OC[C@@H]1Cc1cncn1C [pilocarpine, (3S,4R)-3-ethyl-4-[(3-methylimidazol-4-yl)methyl]oxolan-2-one] | stimulates |  |  |  |  |  |  |  |  |  | suppressed | downregulated | moderately decreased | one of the most downregulated genes | downregulation | upregulation | significantly less phosphorylated | significantly decreased | blocked; also recorded: inhibited to some extent

— patent publication US11344534B2, “Cholinergic agonism for the treatment of pancreatic cancer” (priority 2017, dated 2022)
